# Data published in patent US20250000888A1, “METHODS OF TREATING MYELODYSPLASTIC SYNDROMES WITH DECITABINE AND CEDAZURIDINE” (priority 2021, published 2025).
# Where two headings read alike, the source gives them in different places.
# Key:
# [1] = Phase 3 randomized crossover trial: decitabine total exposure over 5 days (AUC) and plasma pharmacokinetics; type: in vivo, human; conditions: for AUC(0-t): human, plasma, intravenous, 20 mg/m^2/d, read-out: 5-Day Decitabine AUC0-24 LSM
# From the text: A total of 118 patients was planned for this analysis to provide 90% power at the statistical significance level of 0.05, presuming the true ratio of geometric means is 1.0, the intrapatient coefficient of variation (CV) on an unlogged scale is 0.55, and the 90% confidence interval (CI) equivalence limits for the ratio of geometric means are 0.8 and 1.25. Assuming that 10% of patients would not be evaluable, 132 patients were planned to be randomized.
# At least one of either day 1 or 5 decitabine AUC0-24 measurement during the IV decitabine cycle was required to be evaluable. […] Descriptive statistics were calculated for pharmacokinetic values.
# Effects of the sequence and cycle were evaluated.
# [2] = tested on: LINE-1 (long interspersed nuclear element-1) methylation; experiment: Phase 3 trial pharmacodynamics: DNA demethylation by % LINE-1 methylation analysis; type: in vivo, human
# [3] = tested on: patients with MDS or CMML
# Method: Each treatment was given for the first 5 consecutive days of a 28-day cycle. […] Consistent with standard clinical care with parenteral DNMTi, cycles could be delayed or doses reduced if judged necessary for hematologic or nonhematologic recovery.
# Efficacy and safety endpoints were calculated using all data through final cutoff.
# MDS patients [4] = conditions: intention-to-treat; 15 mg/m^2 IV over 3 hours, every 8 hours for 3 days; BSC 14.9; cited from earlier work
# [5] = tested on: intermediate or high-risk MDS patients age 60 or older; conditions: low-dose decitabine IV; BSC 8.5; cited from earlier work
# MDS patients [6] = conditions: cited from earlier work; for Median survival: previous reports in clinical trials; for Overall response rate: reported in clinical studies
# patients with MDS = conditions: BSC arm 12; cited from earlier work
compound,measurement,setting,value
"Nc1ncn([C@H]2C[C@H](O)[C@@H](CO)O2)c(=O)n1 [IV decitabine, 5-aza-2′-deoxycytidine]","Peak concentrations, IV vs oral administration",[1]; FIG. 2A,higher after IV vs oral
same,Time at which peak decitabine plasma concentrations were detected,"[1]; after oral and IV therapy, except day 5 IV",1 h
same,Time at which peak decitabine plasma concentrations were attained,[1]; day 5 after IV treatment,30 min
same,AUC(0-t),"[1]; Primary endpoint, paired, cycles 1 and 2",865 ng·h/mL
same,AUC(0-t),"[1]; Sensitivity, paired, includes data excluded from primary endpoint",870 ng·h/mL
same,AUC(0-t),"[1]; Sensitivity, unpaired",866 ng·h/mL
same,Time plasma concentrations remained above the lower limit of quantification,[1]; in most patients,up to 4 hours
same,Max. % LINE-1 Demethylation LSM,[2]; Cycle 1,14.019%
same,Max. % LINE-1 Demethylation LSM,[2]; Cycle 2,11.968%
same,"Grade ≥3 TEAE Anemia, %",[3]; Cycles 1 and 2,(32) %
same,"Grade ≥3 TEAE Febrile neutropenia, %",[3]; Cycles 1 and 2,(7) %
same,"Grade ≥3 TEAE Leukopenia, %",[3]; Cycles 1 and 2,(14) %
same,"Grade ≥3 TEAE Neutropenia, %",[3]; Cycles 1 and 2,(29) %
same,"Grade ≥3 TEAE Pneumonia, %",[3]; Cycles 1 and 2,(5) %
same,"Grade ≥3 TEAE Thrombocytopenia, %",[3]; Cycles 1 and 2,(32) %
same,"≥1 Grade ≥3 TEAE regardless of relation to treatment, %",[3]; Cycles 1 and 2,(67) %
same,"≥1 TEAE regardless of relation to treatment, %",[3]; Cycles 1 and 2,96%
same,"TEAE Anemia, %","[3]; Cycles 1 and 2, any grade",(36) %
same,"TEAE Constipation, %","[3]; Cycles 1 and 2, any grade",(20) %
same,"TEAE Decreased appetite, %","[3]; Cycles 1 and 2, any grade",(5) %
same,"TEAE Diarrhea, %","[3]; Cycles 1 and 2, any grade",(11) %
same,"TEAE Dyspnea, %","[3]; Cycles 1 and 2, any grade",(10) %
same,"TEAE Fatigue, %","[3]; Cycles 1 and 2, any grade",(17) %
same,"TEAE Febrile neutropenia, %","[3]; Cycles 1 and 2, any grade",(7) %
same,"TEAE Headache, %","[3]; Cycles 1 and 2, any grade",(14) %
same,"TEAE Nausea, %","[3]; Cycles 1 and 2, any grade",(17) %
same,"TEAE Neutropenia, %","[3]; Cycles 1 and 2, any grade",(34) %
same,"TEAE Thrombocytopenia, %","[3]; Cycles 1 and 2, any grade",(39) %
same,"≥1 TEAE regardless of relation to treatment, %","[3]; Cycles 1 and 2, listed as IV Decitabine",(96) %
same,"Treatment-related serious AE rate, recalculated","[3]; first 2 cycles, one AE reassigned to IV decitabine given in cycle 1",4%
same,Patients reporting ≥1 treatment-related serious AE,[3]; first 2 treatment cycles,3%
same,Treatment discontinuation due to an AE,[3]; first 2 treatment cycles,1 patient
same,Deaths deemed related to study medication,"[3]; of 11 fatal serious AEs, oral: sepsis and pneumonia, IV: septic shock, pneumonia",three
same,Median survival,MDS patients [4],14.0 months
same,Overall survival (OS),[5],10.1 months
same,Median survival,MDS patients [6],14.0-19.4 months
same,Overall response rate,MDS patients [6],32%
"Nc1ncn([C@@H]2O[C@H](CO)[C@@H](O)[C@H]2O)c(=O)n1 [azacitidine, 5-azacytidine]",Median time to leukemic transformation or death,patients with MDS,21 months
same,Median survival,MDS patients [6],12.0-24.5 months
same,Overall response rate,MDS patients [6],44%-60%
